Data taken from US6608086B2, “Dihydropyridines and new uses thereof” (Synaptic Pharmaceutical Corporation, priority 1993, dated 2003).
Like-named read-outs stand apart in the source and are kept apart here.

Tests used:
[1] = target: T1, α1A Human Adrenergic Receptor (Homo sapiens, UniProt P25100); assay: Radioligand binding, [3H]prazosin, cloned human α1A adrenergic receptor; details: for Ki: [3H]prazosin, cloned human α1A receptor, LM(tk-) cell membranes
T1 construct: The entire coding region of α1A (1719 bp); expressed in transfected cells
T1 sequence (P25100 1-572): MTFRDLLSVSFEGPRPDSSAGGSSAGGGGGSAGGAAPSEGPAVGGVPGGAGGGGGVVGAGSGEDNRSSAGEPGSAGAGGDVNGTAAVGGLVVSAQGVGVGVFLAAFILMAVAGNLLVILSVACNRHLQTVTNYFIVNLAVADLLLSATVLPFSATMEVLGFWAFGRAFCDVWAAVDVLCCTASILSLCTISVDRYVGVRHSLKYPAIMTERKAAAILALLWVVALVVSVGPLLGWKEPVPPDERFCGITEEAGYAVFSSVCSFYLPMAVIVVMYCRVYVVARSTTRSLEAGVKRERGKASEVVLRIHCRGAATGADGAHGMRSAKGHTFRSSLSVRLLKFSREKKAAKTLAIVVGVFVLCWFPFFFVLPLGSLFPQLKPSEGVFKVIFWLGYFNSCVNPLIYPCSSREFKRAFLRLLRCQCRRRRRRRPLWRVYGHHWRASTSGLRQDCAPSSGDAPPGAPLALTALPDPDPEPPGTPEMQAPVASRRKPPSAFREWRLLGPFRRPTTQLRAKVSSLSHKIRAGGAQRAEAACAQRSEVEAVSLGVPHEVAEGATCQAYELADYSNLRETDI
In short: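 Competition binding used membrane preparations of transfected LM(tk−) cells and the α1 antagonist [3H]prazosin at 0.5 nM, incubated 20 min at 37° C in Tris-HCl buffer, pH 7.5.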

[2] = target: T2, α2B receptor (Homo sapiens, UniProt P18089); assay: Competition binding, [3H]rauwolscine, human α2B receptor; details: for Ki: [3H]rauwolscine, human α2B receptor, LM(tk-) cells
T2 construct: host or cells: LM(tk-) cells, line L-NGC-α2B
T2 sequence (P18089 1-450): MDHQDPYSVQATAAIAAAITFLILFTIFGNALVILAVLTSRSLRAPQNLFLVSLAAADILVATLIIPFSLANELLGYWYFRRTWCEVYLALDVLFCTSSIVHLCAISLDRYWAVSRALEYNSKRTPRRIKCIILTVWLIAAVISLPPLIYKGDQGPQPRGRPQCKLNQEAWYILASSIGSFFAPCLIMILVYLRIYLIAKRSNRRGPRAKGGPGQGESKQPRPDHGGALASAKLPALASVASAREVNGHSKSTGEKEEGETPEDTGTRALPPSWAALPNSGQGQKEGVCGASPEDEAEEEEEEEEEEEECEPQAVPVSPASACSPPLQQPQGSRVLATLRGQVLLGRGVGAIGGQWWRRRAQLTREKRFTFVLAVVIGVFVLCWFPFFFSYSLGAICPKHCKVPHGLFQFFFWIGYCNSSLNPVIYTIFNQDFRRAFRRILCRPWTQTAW
In short: (§1)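 Equilibrium displacement of [3H]rauwolscine (0.5 nM) measured on membranes from stably transfected LM(tk−) lines, one per α2 subtype, in glycylglycine buffer at pH 7.6. Nonspecific binding set by 10 μM phentolamine; separation by filtration.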

[3] = target: T3, α2C receptor (Homo sapiens, UniProt P18825); assay: Competition binding, [3H]rauwolscine, human α2C receptor; details: for Ki: [3H]rauwolscine, human α2C receptor, LM(tk-) cells, read-out: PKi alpha-2 2c (converted)
T3 construct: host or cells: LM(tk-) cells, line L-α2C
T3 sequence (P18825 1-462): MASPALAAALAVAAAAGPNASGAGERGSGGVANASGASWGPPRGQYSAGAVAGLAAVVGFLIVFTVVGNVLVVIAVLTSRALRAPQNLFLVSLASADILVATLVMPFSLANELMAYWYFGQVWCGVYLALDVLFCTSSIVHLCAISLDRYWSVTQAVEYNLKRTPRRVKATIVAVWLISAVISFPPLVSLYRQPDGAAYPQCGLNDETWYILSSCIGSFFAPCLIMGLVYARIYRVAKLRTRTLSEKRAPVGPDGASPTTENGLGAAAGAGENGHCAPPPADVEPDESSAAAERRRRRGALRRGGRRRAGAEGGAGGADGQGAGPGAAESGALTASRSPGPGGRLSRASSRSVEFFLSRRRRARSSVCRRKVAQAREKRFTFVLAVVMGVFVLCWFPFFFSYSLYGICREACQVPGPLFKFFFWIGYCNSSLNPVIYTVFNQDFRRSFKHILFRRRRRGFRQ
In short: as §1

[4] = read-out: PKi alpha-1 1a (converted)
[5] = read-out: PKi alpha-2 2b (converted)

SMILES	Ki ([1]; PKi alpha-1 1a)	Ki ([2]; PKi alpha-2 2b)	Ki [3]	Ki [1, 4]	Ki [2, 5]	PKi alpha-1 1a [1]	PKi alpha-2 2b [2]	PKi alpha-2 2c [3]
CCC1=C(C(=O)NCCOC)C(c2ccc([N+](=O)[O-])cc2)C(C(=O)NCCCN2CCC(c3ccccc3)(c3ccccc3)CC2)=C(COC)N1 (stereo not drawn) [Example 247, 6-Ethyl-1,4-dihydro-5-N-((2-methoxy)ethyl)carboxamido-2-(methyloxy)methyl-4-(4-nitro)phenyl-3-(N-(3-(4,4-diphenylpiperidin-1-yl)propyl)) carboxamidopyridine]	977 nM	479 nM	302 nM					
CCC1=C(C(=O)NN2CCOCC2)C(c2ccc([N+](=O)[O-])cc2)C(C(=O)NCCCN2CCC(c3ccccc3)(c3ccccc3)CC2)=C(COC)N1 (stereo not drawn) [Example 248, 6-Ethyl-1,4-dihydro-2-((methyl)oxy)methyl-5-N-(morpholin-4yl)carboxamido-4-(4-nitro)phenyl-3-(N-(3-(4,4-diphenylpiperidin-1-yl)propyl))carboxamidopyridine]			525 nM	2950 nM	1150 nM			
COC(=O)C1=C(C)NC(C)=C(C(=O)NCCCN2CCC(c3ccccc3)(c3ccccc3)CC2)C1c1cccc([N+](=O)[O-])c1 (stereo not drawn) [Example 249, 1,4-Dihydro-3-methoxycarbonyl-2,6-dimethyl-4-(3-nitrophenyl)-5-(N-(3-(4,4-diphenylpiperidin-1-yl)propyl)carboxamido)-pyridine]						6.37	5.91	6.25
COC(=O)C1=C(C)NC(C)=C(C(=O)NCCCN2CCC(c3ccccc3)CC2)C1c1ccc2c(c1)OCO2 (stereo not drawn) [Example 250]			36.3 nM	603 nM	39.8 nM			
